Melting point data for 31 molecules are collected here from patent publication US7368578B2, “Five-membered heterocyclic compounds” (Takeda Pharmaceutical Company Limited, priority 2002, dated 2008).

As a reminder, the melting point is the temperature of the solid-liquid transition.

Take `Cc1oc(-c2ccco2)nc1COc1ccc(COc2nn(Cc3ccccc3)cc2C=O)cc1` [Example 11, 1-benzyl-3-[(4{[2-(2-furyl)-5-methyl-1,3-oxazol-4-yl]methoxy}benzyl)oxy]-1H-pyrazole-4-carbaldehyde]: the melting point was 118 to 119 °C. Turning to `CCOC(=O)c1cn(Cc2ccccc2)nc1OCc1ccc(OCc2nc(-c3ccco3)oc2C)c(OC)c1` [Example 12, ethyl 1-benzyl-3-[(4-{[2-(2-furyl)-5-methyl-1,3-oxazol-4-yl]methoxy}-3-methoxybenzyl)oxy]-1H-pyrazole-4-carboxylate], the melting point is 117 to 118 °C. In the case of `COc1cc(COc2nn(Cc3ccccc3)cc2C(=O)O)ccc1OCc1nc(-c2ccco2)oc1C` [Example 13, 1-benzyl-3-[(4-{[2-(2-furyl)-5-methyl-1,3-oxazol-4-yl]methoxy}-3-methoxybenzyl)oxy]-1H-pyrazole-4-carboxylic acid] it was 167 to 168 °C. In the case of `COc1cc(COc2nn(Cc3ccccc3)cc2C(N)=O)ccc1OCc1nc(-c2ccco2)oc1C` [Example 14, 1-benzyl-3-[(4-{[2-(2-furyl)-5-methyl-1,3-oxazol-4-yl]methoxy}-3-methoxybenzyl)oxy]-1H-pyrazole-4-carboxamide] it was 160 to 161 °C; in that of `COc1cc(COc2nn(Cc3ccccc3)cc2CO)ccc1OCc1nc(-c2ccco2)oc1C` [Example 15, (1-benzyl-3-[(4-{[2-(2-furyl)-5-methyl-1,3-oxazol-4-yl]methoxy)-3-methoxybenzyl)oxy]-1H-pyrazol-4-yl}methanol], 104 to 105 °C. In the case of `COc1cc(COc2nn(Cc3ccccc3)cc2C=O)ccc1OCc1nc(-c2ccco2)oc1C` [Example 16, 1-benzyl-3-[(4-{[2-(2-furyl)-5-methyl-1,3-oxazol-4-yl]methoxy}-3-methoxybenzyl)oxy]-1H-pyrazole-4-carbaldehyde] it was 139 to 140 °C; in that of `COc1cc(COc2nn(Cc3ccccc3)cc2C(C)O)ccc1OCc1nc(-c2ccco2)oc1C` (stereo not shown) [Example 18, 1-{1-benzyl-3-[(4-{[2-(2-furyl)-5-methyl-1,3-oxazol-4-yl]methoxy}-3-methoxybenzyl)oxy]-1H-pyrazol-4-yl}-1-ethanol], 105 to 106 °C. Regarding `COc1cc(COc2nn(Cc3ccccc3)cc2C(C)=O)ccc1OCc1nc(-c2ccco2)oc1C` [Example 19, 1-{1-benzyl-3-[(4-{[2-(2-furyl)-5-methyl-1,3-oxazol-4-yl]methoxy}-3-methoxybenzyl)oxy]-1H-pyrazol-4-yl}-1-ethanone], the melting point is 144 to 145 °C. Take `CCOC(=O)c1cn(Cc2ccccc2)nc1OCc1ccc(OCc2nc(-c3ccccc3)oc2C)cc1` [Example 20, ethyl 1-benzyl-3-({4-[(5-methyl-2-phenyl-1,3-oxazol-4-yl)methoxy]benzyl}oxy)-1H-pyrazole-4-carboxylate]: the melting point lay within 99 to 100 °C. `Cc1oc(-c2ccccc2)nc1COc1ccc(COc2nn(Cc3ccccc3)cc2C=O)cc1` [Example 22, 1-benzyl-3-[{4-[(5-methyl-2-phenyl-1,3-oxazol-4-yl)methoxy]benzyl}oxy]-1H-pyrazole-4-carbaldehyde] displayed a melting point of 133 to 134 °C.

Consider `CCOC(=O)c1cn(Cc2ccccc2)nc1OCc1cccc(OCc2nc(-c3ccccc3)oc2C)c1` [Example 23, ethyl 1-benzyl-3-({3-[(5-methyl-2-phenyl-1,3-oxazol-4-yl)methoxy]benzyl}oxy)-1H-pyrazole-4-carboxylate], for which the melting point was in the range of 95 to 96 °C. In the case of `Cc1oc(-c2ccccc2)nc1COc1cccc(COc2nn(Cc3ccccc3)cc2C=O)c1` [Example 25, 1-benzyl-3-({3-[(5-methyl-2-phenyl-1,3-oxazol-4-yl)methoxy]benzyl}oxy)-1H-pyrazole-4-carbaldehyde] it was 131 to 132 °C; in that of `CCOC(=O)c1cn(Cc2ccccc2)nc1OCc1cccc(OCc2nc(-c3ccco3)oc2C)c1` [Example 26, ethyl 1-benzyl-3-[(3-{[2-(2-furyl)-5-methyl-1,3-oxazol-4-yl]methoxy}benzyl)oxy]-1H-pyrazole-4-carboxylate], 92 to 93 °C; in that of `Cc1oc(-c2ccco2)nc1COc1cccc(COc2nn(Cc3ccccc3)cc2C=O)c1` [Example 28, 1-benzyl-3-[(3-{[2-(2-furyl)-5-methyl-1,3-oxazol-4-yl]methoxy}benzyl)oxy]-1H-pyrazole-4-carbaldehyde], 135 to 136 °C. In the case of `CCOC(=O)c1cn(Cc2ccccc2)nc1OCc1ccc(OCc2nc(-c3ccco3)oc2C)c(OCC)c1` [Example 29, ethyl 1-benzyl-3-[(3-ethoxy-4-{[2-(2-furyl)-5-methyl-1,3-oxazol-4-yl]methoxy}benzyl)oxy]-1H-pyrazole-4-carboxylate] it was 121 to 122 °C; in that of `CCOc1cc(COc2nn(Cc3ccccc3)cc2C=O)ccc1OCc1nc(-c2ccco2)oc1C` [Example 31, 1-benzyl-3-[(3-ethoxy-4-{[2-(2-furyl)-5-methyl-1,3-oxazol-4-yl]methoxy}benzyl)oxy]-1H-pyrazole-4-carbaldehyde], 144 to 145 °C. The molecule `CCOC(=O)c1cn(Cc2ccccc2)nc1OCc1ccc(OC)c(OCc2nc(-c3ccco3)oc2C)c1` [Example 32, ethyl 1-benzyl-3-[(3-{[2-(2-furyl)-5-methyl-1,3-oxazol-4-yl]methoxy}-4-methoxybenzyl)oxy]-1H-pyrazole-4-carboxylate] returned a melting point of 147 to 148 °C. In the case of `COc1ccc(COc2nn(Cc3ccccc3)cc2C=O)cc1OCc1nc(-c2ccco2)oc1C` [Example 34, 1-benzyl-3-[(3-{[2-(2-furyl)-5-methyl-1,3-oxazol-4-yl]methoxy}-4-methoxybenzyl)oxy]-1H-pyrazole-4-carbaldehyde] it was 142 to 143 °C; in that of `CCOC(=O)c1cn(Cc2ccccc2)nc1OCc1ccc(OCc2nc(-c3ccco3)oc2C)c(Cl)c1` [Example 35, ethyl 1-benzyl-3-[(3-chloro-4-{[2-(2-furyl)-5-methyl-1,3-oxazol-4-yl]methoxy}benzyl)oxy]-1H-pyrazole-4-carboxylate], 153 to 154 °C; in that of `Cc1oc(-c2ccco2)nc1COc1ccc(COc2nn(Cc3ccccc3)cc2C=O)cc1Cl` [Example 37, 1-benzyl-3-[(3-chloro-4-{[2-(2-furyl)-5-methyl-1,3-oxazol-4-yl]methoxy}benzyl)oxy]-1H-pyrazole-4-carbaldehyde], 158 to 159 °C.

The molecule `Cc1oc(-c2ccco2)nc1COc1ccc(COc2nn(Cc3ccccc3)cc2C(=O)O)cc1Cl` [Example 38, 1-benzyl-3-[(3-chloro-4-{[2-(2-furyl)-5-methyl-1,3-oxazol-4-yl]methoxy}benzyl)oxy]-1H-pyrazole-4-carboxylic acid] registered a melting point of 191 to 192 °C. In the case of `CCOC(=O)c1cn(Cc2ccccc2)nc1OCc1ccc(OCc2nc(-c3ccco3)oc2C)c(OCOC)c1` [Example 39, ethyl 1-benzyl-3-[(4-{[2-(2-furyl)-5-methyl-1,3-oxazol-4-yl]methoxy}-3-(methoxymethoxy)benzyl)oxy]-1H-pyrazole-4-carboxylate] it was 120 to 121 °C; in that of `CCOC(=O)c1cn(Cc2ccccc2)nc1OCc1ccc(OCc2nc(-c3ccco3)oc2C)nc1` [Example 40, ethyl 1-benzyl-3-[(6-{[2-(2-furyl)-5-methyl-1,3-oxazol-4-yl]methoxy}-3-pyridinyl)methoxy]-1H-pyrazole-4-carboxylate], 140 to 141 °C. In the case of `Cc1oc(-c2ccco2)nc1COc1ccc(COc2nn(Cc3ccccc3)cc2C(=O)O)cn1` [Example 43, 1-benzyl-3-[(6-{[2-(2-furyl)-5-methyl-1,3-oxazol-4-yl]methoxy}-3-pyridinyl)methoxy]-1H-pyrazole-4-carboxylic acid] it was 151 to 152 °C; in that of `COCOc1cc(COc2nn(Cc3ccccc3)cc2C=O)ccc1OCc1nc(-c2ccco2)oc1C` [Example 45, 1-benzyl-3-([4-{[2-(2-furyl)-5-methyl-1,3-oxazol-4-yl]methoxy}-3-(methoxymethoxy)benzyl]oxy)-1H-pyrazole-4-carbaldehyde], 141 to 142 °C; in that of `CCOC(=O)c1cn(Cc2ccccc2)nc1OCc1ccc(OCc2nc(-c3ccco3)oc2C)c(O)c1` [Example 46, ethyl 1-benzyl-3-[(4-{[2-(2-furyl)-5-methyl-1,3-oxazol-4-yl]methoxy}-3-hydroxybenzyl)oxy]-1H-pyrazole-4-carboxylate], 134 to 135 °C. In the case of `CCOC(=O)c1cn(Cc2ccccc2)nc1OCc1ccc(OCc2nc(-c3ccco3)oc2C)c(OCc2ccccc2)c1` [Example 48, ethyl 1-benzyl-3-[(3-benzyloxy-4-{[2-(2-furyl)-5-methyl-1,3-oxazol-4-yl]methoxy}benzyl)oxy]-1H-pyrazole-4-carboxylate] it was 127 to 128 °C; in that of `Cc1oc(-c2ccco2)nc1COc1ccc(COc2nn(Cc3ccccc3)cc2C=O)cc1OCc1ccccc1` [Example 50, 1-benzyl-3-[(3-benzyloxy-4-{[2-(2-furyl)-5-methyl-1,3-oxazol-4-yl]methoxy}benzyl)oxy]-1H-pyrazole-4-carbaldehyde], 130 to 131 °C; in that of `Cc1oc(-c2ccco2)nc1COc1ccc(COc2nn(Cc3ccccc3)cc2C(=O)O)cc1OCc1ccccc1` [Example 51, 1-benzyl-3-[(3-benzyloxy-4-{[2-(2-furyl)-5-methyl-1,3-oxazol-4-yl]methoxy}benzyl)oxy]-1H-pyrazole-4-carboxylic acid], 184 to 185 °C. `CCOC(=O)c1cn(Cc2ccccc2)nc1OCc1ccc(OCc2nc(-c3ccco3)oc2C)cc1OC` [Example 52, ethyl 1-benzyl-3-[(4-{[2-(2-furyl)-5-methyl-1,3-oxazol-4-yl]methoxy}-2-methoxybenzyl)oxy]-1H-pyrazole-4-carboxylate]: the melting point lay in the range of 137 to 138 °C. In the case of `COc1cc(OCc2nc(-c3ccco3)oc2C)ccc1COc1nn(Cc2ccccc2)cc1C=O` [Example 54, 1-benzyl-3-[(4-{[2-(2-furyl)-5-methyl-1,3-oxazol-4-yl]methoxy}-2-methoxybenzyl)oxy]-1H-pyrazole-4-carbaldehyde] it was 147 to 148 °C.
